In one test the target is Human GLP1R (Homo sapiens, UniProt P43220). In words: cAMP activity assay (assay 1) in assay medium. In kind it is cell-based. Particulars: Table 4, additional peptides, read-out: hGLP1R EC50.
Another test has as its target T1, Human GlucR (Homo sapiens, UniProt P47871).
T1 construct: expressed in transfected cells
The experiment in a line: cAMP activity assay (assay 1) in assay medium. In kind it is cell-based. As to conditions: Table 4, additional peptides, read-out: hGlucR EC50.

Test [1] concerns diet induced obesity (DIO) mouse model. In words: Diet induced obesity (DIO) mouse model, study B. In kind it is in vivo. The method, then:
The body weight of the animals was monitored daily throughout the dosing period. At day 14, blood samples for the measurement of plasma glucose and insulin from conscious mice were obtained after a 4-hour fasting period. Mice were then anaesthetized using isoflourane and terminal blood was collected from the capillary bed behind the eye. The following parameters were measured: blood chemistry measurements of triglycerides, total cholesterol, non-esterified fatty acids (NEFA), beta-hydroxybutyrate and fibroblast growth factor 21 (FGF21) (Table 16 and Table 17 below).

Test [2] has the same test system. In words: Diet induced obesity (DIO) mouse model, study A. In kind it is in vivo. The source says:
Female C57/Bl6JHsdOla (obtained from Harlan Laboratories. UK) were started on a high fat diet of D12492 (Research Diets, NJ, USA) and a chocolate confection, delicato ball (Delicata Bakverk, Sweden) at 9-11 weeks of age, and were maintained on the diet for 16 weeks prior to arrival to the animal facility, during a three week acclimation period and during drug treatment, caloric content of the two components of the diet is shown in Table 11. The mice were divided into 9 groups (n=5-6), and treatment was started at 29 weeks of age.
The body weight of the animals was monitored daily throughout die dosing period. At day 14, blood samples for the measurement of plasma glucose and insulin from conscious mice were obtained after a 4-hour fasting period. Mice were then anaesthetized using isofluorane and terminal blood was collected from the capillary bed behind the eye. The following parameters were measured: blood chemistry measurements of triglycerides, total cholesterol, non-esterified fatty acids (NEFA), beta-hydroxybutyrate and fibroblast growth factor 21 (FGF21) (Tables 14 and 15 below).

Where [3] appears, read: 27 nmol/kg sc twice daily, day 14.
The mark [4] stands for this setting: 27 nmol/kg sc twice daily, day 14, 4-hour fasting.

Numbered stars: 1 amine (or outer) side, 2 acyl side, 3 side chain; on linkers, the order of the positions; unused ones are H or OH. Side chains are listed from the residue outwards. Peptide text beside a SMILES is read from it. * marks the point of attachment. γGlu = O=C(O)[C@H](CCC(=O)[*:2])N[*:1]; Palmitoyl = CCCCCCCCCCCCCCCC(=O)*; Ahx = NCCCCCC(=O)O; βAla = NCCC(=O)O

T1 sequence (P47871 26-477): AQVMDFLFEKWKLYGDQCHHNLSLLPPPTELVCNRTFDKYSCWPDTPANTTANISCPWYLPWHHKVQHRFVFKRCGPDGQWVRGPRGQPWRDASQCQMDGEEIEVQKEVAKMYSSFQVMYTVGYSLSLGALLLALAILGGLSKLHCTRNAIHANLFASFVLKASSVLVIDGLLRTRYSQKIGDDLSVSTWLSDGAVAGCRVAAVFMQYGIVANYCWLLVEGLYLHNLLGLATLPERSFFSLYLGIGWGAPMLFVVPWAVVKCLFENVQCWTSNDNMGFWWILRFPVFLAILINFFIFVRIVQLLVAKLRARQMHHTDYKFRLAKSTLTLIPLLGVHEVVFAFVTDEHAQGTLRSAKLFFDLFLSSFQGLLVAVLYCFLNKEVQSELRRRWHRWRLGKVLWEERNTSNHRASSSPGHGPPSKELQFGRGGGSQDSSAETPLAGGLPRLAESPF
Chain of Human GLP1R (P43220 24-463): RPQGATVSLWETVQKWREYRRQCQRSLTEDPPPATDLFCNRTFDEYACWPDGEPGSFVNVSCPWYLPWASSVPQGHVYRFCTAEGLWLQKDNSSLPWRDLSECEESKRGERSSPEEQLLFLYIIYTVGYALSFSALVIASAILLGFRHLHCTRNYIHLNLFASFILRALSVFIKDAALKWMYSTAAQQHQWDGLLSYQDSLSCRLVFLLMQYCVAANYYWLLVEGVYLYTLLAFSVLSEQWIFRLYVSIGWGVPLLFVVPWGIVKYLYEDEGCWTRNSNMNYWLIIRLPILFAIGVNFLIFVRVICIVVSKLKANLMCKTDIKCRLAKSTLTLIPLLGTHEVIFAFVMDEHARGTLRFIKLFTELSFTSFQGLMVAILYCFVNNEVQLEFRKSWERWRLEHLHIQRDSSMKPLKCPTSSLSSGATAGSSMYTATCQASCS
Protocol for Human GLP1R: (§1) All sample dilutions were made in duplicate.
(§2) A frozen cryo-vial of cells expressing the receptor of interest was thawed rapidly in a water-bath, transferred to pre-warmed assay media and spun at 240×g for 5 minutes. Cells were re-suspended in assay media at an optimized concentration (e.g. hGCGR cells at 1×10^5 cells/ml, hGLP-1R and hGIPR cells at 0.5×10^5 cells/ml).
(§3) To this, 5 μL cell suspension was added and the plates incubated at room temperature for 30 minutes.
(§4) cAMP levels were measured using a commercially available cAMP dynamic 2 HTRF kit (Cisbio, Cat #62AM4PEJ), following the two step protocol as per manufacturer's recommendations. In brief; anti-cAMP cryptate (donor fluorophore) and cAMP-d2 (acceptor fluorophore) were made up separately by diluting each 120 in conjugate & lysis buffer provided in the kit. 5 μL anti-cAMP cryptate was added to all wells of the assay plate, and 5 μL cAMP-d2 added to all wells except non-specific binding (NSB) wells, to which conjugate and lysis buffer was added.
Protocol for Human GlucR: as §1, §2, §3, §4

The term EC50 denotes the concentration giving half of the maximal effect. `CCCCCCCCCCCCCCCC(=O)N[C@@H](CCC(=O)NCCCC[C@H](NC(=O)[C@H](CCC(=O)O)NC(=O)[C@H](CO)NC(=O)[C@H](Cc1ccc(O)cc1)NC(=O)[C@H](CC(=O)O)NC(=O)[C@H](CO)NC(=O)[C@@H](NC(=O)[C@H](Cc1ccccc1)NC(=O)[C@@H](NC(=O)CNC(=O)[C@H](CCC(N)=O)NC(=O)[C@H](CO)NC(=O)[C@@H](N)Cc1c[nH]cn1)[C@@H](C)O)[C@@H](C)O)C(=O)N[C@@H](CC(C)C)C(=O)N[C@@H](CC(=O)O)C(=O)N[C@@H](CO)C(=O)N[C@@H](CCC(=O)O)C(=O)N[C@@H](CCCNC(=N)N)C(=O)N[C@@H](C)C(=O)N[C@@H](CCCNC(=N)N)C(=O)N[C@@H](CC(=O)O)C(=O)N[C@@H](Cc1ccccc1)C(=O)N[C@H](C(=O)N[C@@H](C)C(=O)N[C@@H](Cc1c[nH]c2ccccc12)C(=O)N[C@@H](CC(C)C)C(=O)N[C@H](C(=O)N[C@@H](C)C(=O)NCC(=O)NCC(N)=O)C(C)C)C(C)C)C(=O)O` [g802] (H-HSQGTFTSDYSEK([γGlu-Palmitoyl])LDSERARDFVAWLVAGG-NH2; N-terminus assumed): the EC50 at Human GLP1R came to 0.0364 nM.
Consider `CCCCCCCCCCCCCCCC(=O)NCCC(=O)NCCCC[C@H](NC(=O)[C@H](CO)NC(=O)[C@H](CC(=O)O)NC(=O)[C@H](CC(C)C)NC(=O)[C@H](Cc1ccc(O)cc1)NC(=O)[C@H](CCC(=O)O)NC(=O)[C@H](CO)NC(=O)[C@H](Cc1ccc(O)cc1)NC(=O)[C@H](CC(=O)O)NC(=O)[C@H](CO)NC(=O)[C@@H](NC(=O)[C@H](Cc1ccccc1)NC(=O)[C@@H](NC(=O)CNC(=O)[C@H](CCC(=O)O)NC(=O)[C@H](CO)NC(=O)[C@@H](N)Cc1c[nH]cn1)[C@@H](C)O)[C@@H](C)O)C(=O)N[C@@H](CCCNC(=N)N)C(=O)N[C@@H](C)C(=O)N[C@@H](CCCNC(=N)N)C(=O)N[C@@H](CC(=O)O)C(=O)N[C@@H](Cc1ccccc1)C(=O)N[C@H](C(=O)N[C@@H](C)C(=O)N[C@@H](Cc1c[nH]c2ccccc12)C(=O)N[C@@H](CC(C)C)C(=O)N[C@@H](CCC(=O)O)C(=O)N[C@@H](C)C(=O)NCC(=O)NCC(N)=O)C(C)C` [g734] (H-HSEGTFTSDYSEYLDSK([βAla-Palmitoyl])RARDFVAWLEAGG-NH2; N-terminus assumed), for which the half-maximal effective concentration (EC50) on Human GlucR was 8.28 µM.
Turning to `CCCCCCCCCCCCCCCC(=O)N[C@@H](CCC(=O)NCCCC[C@H](NC(=O)[C@H](C)NC(=O)[C@H](C)NC(=O)[C@H](CCC(N)=O)NC(=O)CNC(=O)[C@H](CCC(=O)O)NC(=O)[C@H](CC(C)C)NC(=O)[C@H](Cc1ccc(O)cc1)NC(=O)[C@H](CO)NC(=O)[C@H](CO)NC(=O)[C@@H](NC(=O)[C@H](CC(=O)O)NC(=O)[C@H](CO)NC(=O)[C@@H](NC(=O)[C@H](Cc1ccccc1)NC(=O)[C@@H](NC(=O)CNC(=O)[C@H](CCC(=O)O)NC(=O)[C@H](C)NC(=O)[C@@H](N)Cc1cnc[nH]1)[C@@H](C)O)[C@@H](C)O)C(C)C)C(=O)N[C@@H](CCC(=O)O)C(=O)N[C@@H](Cc1ccccc1)C(=O)N[C@H](C(=O)N[C@@H](C)C(=O)N[C@@H](Cc1c[nH]c2ccccc12)C(=O)N[C@@H](CC(C)C)C(=O)N[C@H](C(=O)N[C@@H](CCCNC(=N)N)C(=O)NCC(=O)N[C@@H](CCCNC(=N)N)C(=O)NCC(=O)O)C(C)C)[C@@H](C)CC)C(=O)O` [Liraglutide, reference compound], the “BW day 14 (% change of vehicle mean)” value in test [1] (27 nmol/kg sc twice daily for 14 days) is given as −14%. Also, in test [1] (setting [3]), the “FGF 21” value was 2990 pg/mL, the HOMA was 3.51, the “Hepatic TG” value was 18.4 g TG/100 g tissue and the “Plasma Cholesterol” value turned out to be 3.26 mM. Moreover, in test [1] (setting [3]), the “Plasma NEFA” value worked out at 0.29 mM and the “Plasma TG” value stood at 0.28 mM. In test [1] (setting [4]), this compound registered a Glucose of 7.7 mM and an Insulin of 0.31 nM. The “BW day 14 (% change of vehicle mean)” value in test [2] (27 nmol/kg sc twice daily 14 days) is on record as −13.3%. For the same compound, in test [2] (27 nmol/kg, day 14), the BeHy is listed as 345 u mol/l, the “FGF 21” value amounted to 2481 pg/mL, the HOMA came out at 2.8 and the “Hepatic TG” value turned out to be 13.1 g TB/100 g tissue. Also, in test [2] (27 nmol/kg, day 14), the Insulin was 0.3 nM, the “Plasma Cholesterol” value turned out to be 3.75 mM, the “Plasma NEFA” value stood at 0.24 Mm and the “Plasma TG” value was determined as 0.24 mM. Also, the Glucose in test [2] (27 nmol/kg, day 14, 4-hour fasting) was 8.0 mM.
Regarding `CCCCCCCCCCCCCCCC(=O)N[C@@H](CCC(=O)NCCCC[C@H](NC(=O)[C@H](CO)NC(=O)[C@H](CC(=O)O)NC(=O)[C@H](CC(C)C)NC(=O)[C@H](Cc1ccc(O)cc1)NC(=O)[C@H](CCCCN)NC(=O)[C@H](CO)NC(=O)[C@H](Cc1ccc(O)cc1)NC(=O)[C@H](CC(=O)O)NC(=O)[C@H](CO)NC(=O)[C@@H](NC(=O)[C@H](Cc1ccccc1)NC(=O)[C@@H](NC(=O)CNC(=O)[C@H](CCC(=O)O)NC(=O)[C@H](CO)NC(=O)[C@@H](N)Cc1c[nH]cn1)[C@@H](C)O)[C@@H](C)O)C(=O)N[C@@H](CCCNC(=N)N)C(=O)N[C@@H](C)C(=O)N[C@@H](CCC(=O)O)C(=O)N[C@@H](CC(=O)O)C(=O)N[C@@H](Cc1ccccc1)C(=O)N[C@H](C(=O)N[C@@H](CCC(=O)O)C(=O)N[C@@H](Cc1c[nH]c2ccccc12)C(=O)N[C@@H](CC(C)C)C(=O)N[C@H](C(=O)N[C@@H](C)C(=O)NCC(=O)NCC(N)=O)C(C)C)C(C)C)C(=O)O` [g639] (H-HSEGTFTSDYSKYLDSK([γGlu-Palmitoyl])RAEDFVEWLVAGG-NH2; N-terminus assumed), the EC50 on Human GlucR was 8.21 µM.
Regarding `CCCCCCCCCCCCCCCC(=O)NCCCCCC(=O)NCCCC[C@H](NC(=O)[C@H](CO)NC(=O)[C@H](CC(=O)O)NC(=O)[C@H](CC(C)C)NC(=O)[C@H](Cc1ccc(O)cc1)NC(=O)[C@H](CCC(=O)O)NC(=O)[C@H](CO)NC(=O)[C@H](Cc1ccc(O)cc1)NC(=O)[C@H](CC(=O)O)NC(=O)[C@H](CO)NC(=O)[C@@H](NC(=O)[C@H](Cc1ccccc1)NC(=O)[C@@H](NC(=O)CNC(=O)[C@H](CCC(N)=O)NC(=O)CNC(=O)[C@@H](N)Cc1c[nH]cn1)[C@@H](C)O)[C@@H](C)O)C(=O)N[C@@H](CCCNC(=N)N)C(=O)N[C@@H](C)C(=O)N[C@@H](CCCNC(=N)N)C(=O)N[C@@H](CC(=O)O)C(=O)N[C@@H](Cc1ccccc1)C(=O)N[C@H](C(=O)N[C@@H](C)C(=O)N[C@@H](Cc1c[nH]c2ccccc12)C(=O)N[C@@H](CC(C)C)C(=O)N[C@@H](CCC(=O)O)C(=O)N[C@@H](CCCNC(=N)N)C(=O)NCC(=O)NCC(N)=O)C(C)C` [g684] (H-HGQGTFTSDYSEYLDSK([Ahx-Palmitoyl])RARDFVAWLERGG-NH2; N-terminus assumed), the concentration for a half-maximal effect (EC50) on Human GLP1R was determined as 0.0161 nM.
Same read-out and setting: the figure for `CCCCCCCCCCCCCCCC(=O)N[C@@H](CCC(=O)NCCCC[C@H](NC(=O)[C@H](CO)NC(=O)[C@H](CC(=O)O)NC(=O)[C@H](CC(C)C)NC(=O)[C@H](Cc1ccc(O)cc1)NC(=O)[C@H](CCC(=O)O)NC(=O)[C@H](CO)NC(=O)[C@H](Cc1ccc(O)cc1)NC(=O)[C@H](CC(=O)O)NC(=O)[C@H](CO)NC(=O)[C@@H](NC(=O)[C@H](Cc1ccccc1)NC(=O)[C@@H](NC(=O)CNC(=O)[C@H](CCC(N)=O)NC(=O)CNC(=O)[C@@H](N)Cc1c[nH]cn1)[C@@H](C)O)[C@@H](C)O)C(=O)N[C@@H](CCCNC(=N)N)C(=O)N[C@@H](C)C(=O)N[C@@H](CCCNC(=N)N)C(=O)N[C@@H](CC(=O)O)C(=O)N[C@@H](Cc1ccccc1)C(=O)N[C@H](C(=O)N[C@@H](C)C(=O)N[C@@H](Cc1c[nH]c2ccccc12)C(=O)N[C@@H](CC(C)C)C(=O)N[C@H](C(=O)N[C@@H](C)C(=O)NCC(=O)NCC(N)=O)C(C)C)C(C)C)C(=O)O` [g735] (H-HGQGTFTSDYSEYLDSK([γGlu-Palmitoyl])RARDFVAWLVAGG-NH2; N-terminus assumed) is 0.161 nM.
On to `CCCCCCCCCCCCCCCC(=O)NCCCCCC(=O)NCCCC[C@H](NC(=O)[C@H](CO)NC(=O)[C@H](CC(=O)O)NC(=O)[C@H](CC(C)C)NC(=O)[C@H](Cc1ccc(O)cc1)NC(=O)[C@H](CCC(=O)O)NC(=O)[C@H](CO)NC(=O)[C@H](Cc1ccc(O)cc1)NC(=O)[C@H](CC(=O)O)NC(=O)[C@H](CO)NC(=O)[C@@H](NC(=O)[C@H](Cc1ccccc1)NC(=O)[C@@H](NC(=O)CNC(=O)[C@H](CCC(N)=O)NC(=O)CNC(=O)[C@@H](N)Cc1c[nH]cn1)[C@@H](C)O)[C@@H](C)O)C(=O)N[C@@H](CCCNC(=N)N)C(=O)N[C@@H](C)C(=O)N[C@@H](C)C(=O)N[C@@H](CC(=O)O)C(=O)N[C@@H](Cc1ccccc1)C(=O)N[C@H](C(=O)N[C@@H](C)C(=O)N[C@@H](Cc1c[nH]c2ccccc12)C(=O)N[C@@H](CC(C)C)C(=O)N[C@@H](CCC(=O)O)C(=O)N[C@@H](CCCNC(=N)N)C(=O)NCC(=O)NCC(N)=O)C(C)C` [g683], for which the EC50 at Human GlucR came out at 0.000372 µM.
